We go through four compounds from publication PMC4882559, “Novel Azetidine-Containing TZT-1027 Analogues as Antitumor Agents” (Marine Drugs, 2016).

Data set [1] has as its system A549 human lung carcinoma cell lines. Briefly: Cancer cell proliferation inhibition (MTT assay), A549. It counts as cell-based. Here is the method: (§1) The following cell lines were used for the screening stage, obtained from American Type Culture Collection (ATCC, Manassas, VA, USA); HCT116 human colon cancer cells and A549 human lung carcinoma cell lines were cultured in RPMI 1640 medium supplemented with 10% FBS. Cell cultures were maintained in a humidified atmosphere of 5% CO2 at 37 °C. Cells were seeded at 2000 cells per well in 96-well plates in a volume of 200 μL per well. The test compounds were dissolved in DMSO and diluted with culture medium to different concentrations. After seeding for 24 h, the medium was removed, and […] of the test compound solution was added in duplicates and incubation continued for 72 h at 37 °C in a humidified atmosphere containing 5% CO2. Control cells were treated with vehicle alone. During the last 4 h of incubation, the cells were exposed to tetrazolium dye (MTT) solution (5 mg/mL, […] per well). The generated formazan crystals were dissolved in […] of dimethyl sulfoxide (DMSO), and the absorbance was read spectrophotometrically at 570 nm using an enzyme-linked immunosorbent assay plate reader. The data was calculated using Graph Pad Prism version 5.0 (GraphPad Softwrae, La Jolla, CA, USA). The IC50s were fitted using a non-linear regression model with a sigmoidal dose response.

The subject of data set [2] is HCT116 human colon cancer cells. The data set can be described thus: Cancer cell proliferation inhibition (MTT assay), HCT116. Format: cell-based. The note with it: Homo sapiens, HCT-116, 72 h incubation, mean ± SD of at least three independent experiments. Here is the method: as §1
The nature of data set [3]: Liver microsomes metabolic stability, rat.
A short description of data set [4]: Liver microsomes metabolic stability, human.
Data set [5] can be described thus: Liver microsomes metabolic stability, mouse.
The subject of data set [6] is Human A549 xenograft. Briefly: In vivo efficacy study, A549 xenograft model. On the set-up: species or system BALB/c athymic mice. The note with it: 2 mg/kg iv once a day; for Tumor volume: n = 6, mean (SD on next line); for Relative tumor volume: RTV = Vt/V0, n = 6, mean ± SD. The text has this:
Pathogen-free, 4–6 week-old, female BALB/c athymic mice (Shanghai SCXK Laboratory Animal Technology Co. Ltd., Shanghai, China) were housed under sterile conditions. Human A549 xenograft was established in the right flanks of athymic mice according to the protocol of the National Cancer Institute. When the tumor reached a volume of 100 mm^3, the mice were randomly assigned into control (n = 6 per group) and treatment groups (n = 6 per group). Control group were given lactate buffer, and treatment groups were iv administered with tested compounds. The size of tumor was measured individually on the indicated days. Tumor volume (V) was calculated as V = (length × width^2)/2. The individual relative tumor volume (RTV) was calculated as follows: RTV = Vt/V0, where Vt represented the last tumor size measurement and V0 represented the pre-dosing tumor size measurement. The animal experimental protocols were approved by the Animal Ethics Committee of School of Pharmacy, Fudan University and the mice were treated in accordance with international animal ethics guidelines.

For data set [7] the following is noted: dose of 4 mg/kg; cited from earlier work. The method, then: Further in vivo antitumor activities of 1a was evaluated in A549 xenograft models in mice via tail vein intravenous injection for 22 days. […] Considering of that, the maximum dose of 1a was chosen as 5 mg/kg. […] However, compound 1a could not achieve effective inhibition at all the dose levels (Figure 3b). TZT-1027 (2 mg/kg/day) inhibited tumor growth by 61% over the 22-day administration schedule, howe ... || In summary, we described the design and synthesis of nine TZT-1027 analogues based on the conformation restriction strategy. 3-Aryl-zetidines were used to replace the phenylethyl group at C-terminus. Two human cancer cell lines (A549, HCT116) were used to evaluate the potency of the synthesized compounds. […] Compound 1a could not achieve effective inhibition in A549 xenograft models at different dose levels.

As for `CC[C@H](C)[C@@H]([C@@H](CC(=O)N1CCC[C@H]1[C@H](OC)[C@@H](C)C(=O)N1CC(c2ccccc2C(C)C)C1)OC)N(C)C(=O)[C@@H](NC(=O)[C@@H](C(C)C)N(C)C)C(C)C` [1d, (S)-2-((R)-2-(Dimethylamino)-3-methylbutanamido)-N-((3R,4S,5S)-1-((S)-2-((1R,2R)-3-(3-(2-isopropylphenyl)azetidin-1-yl)-1-methoxy-2-methyl-3-oxopropyl)pyrrolidin-1-yl)-3-methoxy-5-methyl-1-oxoheptan-4-yl)-N,3-dimethylbutanamide], the “loss of potency against A549 cell lines” value in data set [1] (substituted phenyl analogues compared with 1a) is “about 60 fold”.

Consider `CC(=O)O[C@@]12CO[C@@H]1C[C@H](O)[C@@]1(C)C(=O)[C@H](O)C3=C(C)[C@@H](OC(=O)[C@H](O)[C@@H](NC(=O)OC(C)(C)C)c4ccccc4)C[C@@](O)([C@@H](OC(=O)c4ccccc4)[C@H]21)C3(C)C` [Docetaxel, reference compound], for which the IC50 in data set [1] (Homo sapiens, A549, MTT assay, 72 h incubation, mean ± SD of at least three independent experiments) stood at 23.5 ± 9.5 nM; in data set [2], 0.3 ± 0.1 nM.

In the case of `O=C(c1ccc(F)cc1)C1CCN(CCn2c(=O)[nH]c3ccccc3c2=O)CC1` [Ketanserin, ketanserin, reference compound], the Clint in data set [3] (Rat, apparent intrinsic clearance, 1 μM) was found to be 159.00 mL/min/kg; in data set [4] (Human, apparent intrinsic clearance, 1 μM), 39.63 mL/min/kg; in data set [5] (Mouse, apparent intrinsic clearance, 1 μM), 402.92 mL/min/kg. In addition, the half-life at 1 μM was found to be 15.6 min in data set [3] (rat, liver microsomes); 43.9 min in data set [4] (human, liver microsomes); 13.5 min in data set [5] (mouse, liver microsomes).

Regarding `CC[C@H](C)[C@@H]([C@@H](CC(=O)N1CCC[C@H]1[C@H](OC)[C@@H](C)C(=O)NCCc1ccccc1)OC)N(C)C(=O)[C@@H](NC(=O)[C@H](C(C)C)N(C)C)C(C)C` [TZT-1027], the Tumor volume in data set [6] (day 1) is 147.31 mm3; in data set [6] (day 4) it was 182.59 mm3; in data set [6] (day 7), 196.64 mm3; in data set [6] (day 10) it was 232.81 mm3; in data set [6] (day 13), 275.81 mm3; in data set [6] (day 16) it was 301.7 mm3. Further, the Tumor volume was 346.59 mm3 in data set [6] (day 19) and 363.71 mm3 in data set [6] (day 22). Besides, the Relative tumor volume in data set [6] (day 7) was 1.48 ± 0.64; in data set [6] (day 10), 1.73 ± 0.78; in data set [6] (day 13) it was 2.09 ± 0.9; in data set [6] (day 16) it was 2.3 ± 0.9; in data set [6] (day 19) it was 2.6 ± 1.33; in data set [6] (day 22), 2.66 ± 1.11. The “toxicity of a dose” value in data set [7] is “seemed to be toxic”.
